The subject of test [1] is Smad2 phosphorylation stimulated by TGF-β1. Nature of the test: TGF-β1-stimulated Smad2 phosphorylation, Western blot, Mv1Lu cells. It counts as cell-based, mink. The method, then:
Cells were treated with increasing concentrations of cholesterol, as indicated (A, B, C), 50 μg protein/ml LDL (D), 5 μg protein/ml VLDL (D) or 50 μg/ml cholesterol (E) at 37° C. for 1 hr and then further incubated with 50 pM TGF-β1 for 30 min. Phosphorylated Smad2 (P-Smad2) and total Smad2 in the cell lysates were analyzed by 7.5% SDS-PAGE and followed by immunoblot analysis using anti-P-Smad2 and anti-Smad2 antibodies. A representative of a total of 3 analyses is shown (top). The quantitative analysis of the immunoblots is shown (bottom). […] Smad2 nuclear translocation was analyzed by indirect immunofluorescent staining using P-Smad2 antibody and rhodamine-labeled 2nd antibody (E). Rhodamine fluorescence represents P-Smad2 staining (a,b,c) whereas the nuclei were stained by DAPI staining (d,e,f).
Cells grown to near confluence on 12-well cluster dishes were treated with cholesterol or LDL in serum-free DMEM (vol.=0.5 ml/well) at 37° C. for 1 hr. […] Treated cells were lysed and cell lysates were analyzed by 7.5% SDS-PAGE and Western blot analysis using anti-Smad2, anti-P-Smad2, anti-caveolin-1, anti-TβR-I (alk5) or anti-TβR-II antibodies as described previously (30). […]
It has been reported that TGF-β responsiveness is determined by TGF-β partitioning between lipid raft/caveolae-mediated and clathrin-mediated endocytosis. […]
(Immunoblotting shows a protein as a band on a membrane.)

The test system of the next test is pig burn wounds. Nature of the test: Pig skin burn injury model: wound healing and scar. It counts as in vivo. The following applies: topical; for wound closure / open wound: post-burn day 38. The method, then:
FIG. 6. Wound closure and scar formation in pig burn wounds treated with cholesterol (CHO). Burn wounds treated with 0.025% cholesterol (A,B) and 0.00625% cholesterol (E,F) and vehicle only (C,D) were photographed immediately after burn injury (A,C,E) and at postburn day 38 (B,D,F). After burn injury, necrosis was present (white) (A,C,E).
Four pigs weighing 20-25 kg were anesthetized by intramuscular injection of ketamine (5 mg/kg), strenil (cazaporonum) (20 mg/kg) and atropine ([…]). Six uniform burn wounds (110° C., 30 sec) were then made symmetrically on the back of each pig using a modified soldering iron with a flat contact area of ˜20 cm^2. […] After wounding, IntraSite gels containing TGF-β antagonist and buffer vehicle (as control) were applied to the pig burn wounds. The burn wound received no topical gel treatment was also used as the other control. All wounds were dressed with paraffin gauze. TGF-β antagonist gel and control gel were applied to the wounds every two days for the first 10 days and twice a week for the next 30 days. All wounds were cleaned and measured prior to each application of the IntraSite gel.
Wound healing was assessed by evaluating the rates of wound re-epithelialization and contraction. The open wound area and the area enclosed by the normal hair bearing skin were measured using the macrophotography technique. The healing rate was monitored every two days for the first 10 days and twice a week for 30 more days. Wound re-epithelialization or contraction as a percent of the original wound size was calculated as described previously.
The volumes of scar were estimated by multiplying their thickness by the size of the scar on post-burn day 41 in pigs and on post-excision day 10 in rabbits.
These include: 1) Cholesterol treatment of cells suppresses TGF-β-induced cellular responsiveness including TGF-β induced Smad2 phosphorylation and nuclear translocation and TGF-β-induced expression of plasminogen activator inhibitor-1 (PAI-1). PAI-1 gene expression has commonly been used as an indicator of TGF-β-induced cellular responsiveness and PAI-1 is involved in inhibiting degradation of ECM proteins. And 2) Cholesterol treatment reverses TGF-β-induced growth inhibition in Mv1Lu cells. Since TGF-β negatively regulates normal wound healing and mediates skin fibrosis and scarring, we decided to test the effect of cholesterol on wound healing and scar formation in a pig skin burn injury model. Six thermal burns (110° C., 30 sec.; ˜20 cm^2, three on each side) were created on the back on each pig (20 kg, female). After wounding, two lesions were treated with a thin-layer of gel containing 0.025% cholesterol; two received gel containing 0.006% cholesterol and two received gel containing vehicle only. Cholesterol and cholesterol gels were applied every 2 days for the first 10 days and twice a week for the nest 30 days at which time re-epithelialization was measured and photographed. […] The volumes of the scar tissue in wound treated with 0.025% and 0.00625% cholesterol were 0.01 and 0.20±0.04 cm^3, respectively. The volume of the scar tissue in wounds treated with vehicle only was 0.45±0.03 cm^3.

Molecules are shown by their SMILES. Entries after “also recorded” stand apart in the source; their conditions may differ.

Take `CC(C)CCC[C@@H](C)[C@H]1CC[C@H]2[C@@H]3CC=C4C[C@@H](O)CC[C@]4(C)[C@H]3CC[C@]12C` [cholesterol]: the “suppression of Smad2 phosphorylation stimulated by TGF-β1” value in test [1] (25 μg/ml, 37° C. 1 hr, then 50 pM TGF-β1 0.5 hr, Mv1Lu cells) was determined as 55%. Moreover, the “effect on Smad2 phosphorylation” value in test [1] (at concentrations of 6 or 10 μg/ml, Mv1Lu, BAEC, NRK cells (FIG. 1)) was “appreciably suppressed”. In the test with pig burn wounds (0.00625% cholesterol gel), the “volume of the scar tissue” value was found to be 0.20±0.04 cm^3; the “wound closure / open wound” value is “no and almost complete”. In addition, in the test with pig burn wounds (0.025% cholesterol gel), the surface of wounds result was “very smooth without apparent scar”, the “volume of the scar tissue” value is recorded as 0.01 cm^3 and the “wound closure / open wound” value is “very little open wound; also recorded: complete”.
